Source: the supplement of paper PMC10307832

Assays:
Test in all cases: relative viability (nuclei count vs DMSO), 5 days (fraction); higher = more cells survive
Sunitinib + Phenformin = compound: CCN(CC)CCNC(=O)c1c(C)[nH]c(/C=C2\C(=O)Nc3ccc(F)cc32)c1C [Sunitinib] + N=C(N)NC(=N)NCCc1ccccc1 [Phenformin] (partner 250 µM)
In short: (§1)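 Relative viability divides the nuclei count in treated wells by that in vehicle wells. Lung cancer cell lines were seeded in 1536-well plates, dosed by pin tool the next day, and fixed and stained after 5 days in one step with final 0.05% Triton X-100, 1% formaldehyde and 1 ug/ml Hoechst. Dosing was a single drug or a fixed anchor-drug dose plus five library-drug doses (not always all listed) in √10 steps, and values are medians of duplicate plates imaged at 4×.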

Sunitinib + Lapatinib = compound: CCN(CC)CCNC(=O)c1c(C)[nH]c(/C=C2\C(=O)Nc3ccc(F)cc32)c1C [Sunitinib] + CS(=O)(=O)CCNCc1ccc(-c2ccc3ncnc(Nc4ccc(OCc5cccc(F)c5)c(Cl)c4)c3c2)o1 [Lapatinib] (partner 2 µM)
In short: as §1

Sunitinib + Olaparib = compound: CCN(CC)CCNC(=O)c1c(C)[nH]c(/C=C2\C(=O)Nc3ccc(F)cc32)c1C [Sunitinib] + O=C(c1cc(Cc2n[nH]c(=O)c3ccccc23)ccc1F)N1CCN(C(=O)C2CC2)CC1 [Olaparib] (partner 8 µM)
In short: as §1

Sunitinib + Trametinib = compound: CCN(CC)CCNC(=O)c1c(C)[nH]c(/C=C2\C(=O)Nc3ccc(F)cc32)c1C [Sunitinib] + CC(=O)Nc1cccc(-n2c(=O)n(C3CC3)c(=O)c3c(Nc4ccc(I)cc4F)n(C)c(=O)c(C)c32)c1 [Trametinib] (partner 0.02 µM)
In short: as §1

| Cell Line | relative viability (Sunitinib + Phenformin; first compound 0.02 µM) | relative viability (Sunitinib + Phenformin; first compound 0.06325 µM) | relative viability (Sunitinib + Phenformin; first compound 0.2 µM) | relative viability (Sunitinib + Phenformin; first compound 0.6325 µM) | relative viability (Sunitinib + Phenformin; first compound 2 µM) | relative viability (Sunitinib + Lapatinib; first compound 0.02 µM) | relative viability (Sunitinib + Lapatinib; first compound 0.2 µM) | relative viability (Sunitinib + Lapatinib; first compound 0.6325 µM) | relative viability (Sunitinib + Lapatinib; first compound 2 µM) | relative viability (Sunitinib + Olaparib; first compound 0.02 µM) | relative viability (Sunitinib + Olaparib; first compound 0.06325 µM) | relative viability (Sunitinib + Olaparib; first compound 0.2 µM) | relative viability (Sunitinib + Olaparib; first compound 0.6325 µM) | relative viability (Sunitinib + Olaparib; first compound 2 µM) | relative viability (Sunitinib + Trametinib; first compound 0.02 µM) | relative viability (Sunitinib + Trametinib; first compound 0.06325 µM) | relative viability (Sunitinib + Trametinib; first compound 0.2 µM) | relative viability (Sunitinib + Trametinib; first compound 0.6325 µM) | relative viability (Sunitinib + Trametinib; first compound 2 µM) | relative viability (Sunitinib + Lapatinib; first compound 0.06325 µM) |
| --- | --- | --- | --- | --- | --- | --- | --- | --- | --- | --- | --- | --- | --- | --- | --- | --- | --- | --- | --- | --- |
| NCI-H1650 | 0.384 | 0.492 | 0.382 | 0.533 | 0.371 | 0.559 | 0.769 | 0.739 | 0.737 | 0.744 | 0.742 | 0.822 | 0.791 | 0.738 | 0.509 | 0.63 | 0.874 | 0.621 | 0.552 | – |
| NCI-H2347 | 0.486 | 0.484 | 0.567 | 0.384 | 0.404 | 0.873 | 1.17 | 1.03 | 0.95 | 0.596 | 0.611 | 0.695 | 0.609 | 0.572 | 0.293 | 0.251 | 0.24 | 0.314 | 0.296 | – |
| NCI-H650 | 0.444 | 0.46 | 0.428 | 0.49 | 0.465 | 1.09 | 0.807 | 0.925 | 0.964 | 0.399 | 0.405 | 0.39 | 0.445 | 0.384 | 0.917 | 1.04 | 1.16 | 0.988 | 1.01 | 1.33 |
| NCI-H1395 | 0.462 | 0.415 | 0.446 | 0.487 | 0.482 | 0.947 | 1.07 | 1.16 | 1 | 0.441 | 0.438 | 0.478 | 0.484 | 0.482 | 0.92 | – | 1.22 | 0.988 | 0.99 | 1.17 |
| NCI-H358 | 0.322 | 0.447 | 0.373 | 0.348 | 0.29 | 0.421 | 0.457 | 0.514 | 0.377 | 0.452 | 0.617 | 0.756 | 0.666 | 0.471 | 0.137 | 0.143 | 0.138 | 0.127 | 0.14 | 0.6 |
| NCI-H2087 | 0.456 | 0.398 | 0.545 | 0.507 | 0.42 | – | 1.01 | 1.26 | 1.03 | 0.605 | 0.689 | 0.822 | 0.674 | 0.56 | 0.2 | 0.234 | 0.266 | 0.211 | 0.237 | 1.11 |
